{
  "source": "patent US20240368173A1",
  "about": "“TRICYCLIC GPR65 MODULATORS” (PATHIOS THERAPEUTICS LIMITED, priority 2021, published 2024)",
  "note": "pIC50: −log10 of the molar value.",
  "data": [
    {"biological_target": "human recombinant GPR65 (Homo sapiens, UniProt Q8IYL9)", "sequence (Q8IYL9 whole entry)": "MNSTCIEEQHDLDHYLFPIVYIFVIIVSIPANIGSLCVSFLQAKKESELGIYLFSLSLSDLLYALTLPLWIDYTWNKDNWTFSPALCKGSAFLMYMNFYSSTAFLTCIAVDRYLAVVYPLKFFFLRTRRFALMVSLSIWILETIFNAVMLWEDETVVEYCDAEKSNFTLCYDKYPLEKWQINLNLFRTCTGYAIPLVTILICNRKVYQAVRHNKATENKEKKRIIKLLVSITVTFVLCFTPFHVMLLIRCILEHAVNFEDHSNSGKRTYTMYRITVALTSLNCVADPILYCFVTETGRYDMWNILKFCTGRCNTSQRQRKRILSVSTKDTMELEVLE", "test": "Human GPR65 cAMP HTRF antagonist assay", "type": "cell-based", "details": "not given", "source_text": "(§1) In one preferred embodiment, the compound prevents the increase in cytoplasmic cAMP levels expected following GPR65 activation at acidic pH. This prevention of cAMP accumulation in turn prevents downstream signalling through ICER, as described above. The “Human GPR65 cyclic adenosine monophosphate (cAMP) Homogeneous Time Resolved Fluorescence (HTRF) antagonist assay”, or simply “cAMP assay”, as described in the accompanying examples, can be used to measure the potency of GPR65 modulators, which is expressed as the concentration of compound required to reduce the increase in cAMP concentration upon GPR65 activation by 50% (i.e. an IC50).\n(§2) Human GPR65 Cyclic Adenosine Monophosphate (cAMP) Homogeneous Time Resolved Fluorescence (HTRF) Antagonist Assay Procedure\n(§3) IC50 data was obtained by the following procedure:\n(§4) 1321N1 human astrocytoma cells stably expressing human recombinant GPR65 (1321N1-hrGPR65 cells, EuroscreenFast) were cultured according to the vendor's instructions.\n(§5) Compounds were tested for their ability to antagonise GPR65, through measuring the concentration of cytoplasmic cAMP following treatment of the cells at a pH of 7.2 to activate GPR65 signalling and addition of the compound to be tested. The extent to which the expected rise in cAMP concentration upon GPR65 activation was suppressed by the added compound is indicative of its potency. The assay was carried out according to EuroscreenFast assay Methodology as follows.\n(§6) On the day of the assay, test compounds were added to 384-well, low volume, white microtiter plates by acoustic dispensing. KRH buffer (5 mM KCl, 1.25 mM MgSO4, 124 mM NaCl, 25 mM HEPES, 13.3 mM Glucose, 1.25 mM KH2PO4 and 1.45 mM CaCl2) was adjusted to pH 6.5, pH 7.6 and pH 8.4 by adding NaOH. 1321N1-hGPR65 cells were rapidly thawed and diluted in KRH, pH 7.6 prior to centrifugation at 300×g for 5 min and resuspension in assay buffer (KRH, pH 7.6, supplemented with 1 mM 3-isobutyl-1-methylxanthine (IBMX) and 200 μM ethylenediaminetetraacetic acid (EDTA)). Cells were added to assay plates at a density of 2,000 cells per well in a volume of 5 μl. Assay plates were briefly centrifuged at 100×g and then incubated at room temperature for 30 min. Cells were stimulated by the addition of 5 μL KRH, pH 6.5, to achieve an assay pH of 7.2, while control wells received 5 μl KRH, pH 8.4 to achieve an assay pH of 7.9. Assay plates were briefly centrifuged at 100×g and then incubated at room temperature for 30 min.\n(§7) Accumulation of cAMP was detected by cAMP HTRF kit (Cisbio). d2-labeled cAMP and cryptate-labeled anti-cAMP antibody in Lysis and Detection Buffer (Cisbio) were added to assay plates, and the plates were incubated at room temperature for 1 h. HTRF measurements were performed using a Pherastar FSX instrument. Acceptor and donor emission signals were measured at 665 nm and 620 nm, respectively, and HTRF ratios were calculated as signal665 nm/signal620 nm×10^4. Data were normalised to high and low control values and fitted with 4-parameter logistic regression to determine hGPR65 IC50 values for the test compounds, which are shown in Table 1.", "values": [
      {"smiles": "O=C(Nc1cc(C(F)(F)F)on1)N1C2CCC1c1n[nH]c(=O)cc1C2", "note": "(racemic) [Compound 44, (±)-3-Oxo-N-(5-(trifluoromethyl)isoxazole-3-yl)-3,5,6,7,8,9-hexahydro-2H-6,9-epiminocyclohepta[c]pyridazine-10-carboxamide]", "pIC50": "> 6.30"},
      {"smiles": "O=C(Nc1cc(Cl)c(COc2ccc3nonc3c2)cc1F)N1[C@H]2CC[C@@H]1c1n[nH]c(=O)cc1C2", "note": "[Compound 302, (6S,9R)-N-(4-((Benzo[c][1,2,5]oxadiazol-5-yloxy)methyl)-5-chloro-2-fluorophenyl)-3-oxo-3,5,6,7,8,9-hexahydro-2H-6,9-epiminocyclohepta[c]pyridazine-10-carboxamide]", "pIC50": "> 6.30"},
      {"smiles": "O=C(Nc1cc(Cl)c(C(F)(F)F)cc1F)N1[C@H]2CC[C@@H]1c1c[nH]c(=O)nc1C2", "note": "[Compound 24, (5R,8S)-N-(5-Chloro-2-fluoro-4-(trifluoromethyl)phenyl)-2-oxo-3,5,6,7,8,9-hexahydro-2H-5,8-epiminocyclohepta[d]pyrimidine-10-carboxamide]", "pIC50": "> 6.30"},
      {"smiles": "O=C(Nc1cc(Cl)c(-c2ccc(OC3CC3)nc2)cc1F)N1[C@H]2CC[C@@H]1c1c[nH]c(=O)cc1C2", "note": "[Compound 222, (6S,9R)-N-(5-Chloro-4-(6-cyclopropoxypyridin-3-yl)-2-fluorophenyl)-3-oxo-3,5,6,7,8,9-hexahydro-2H-6,9-epiminocyclohepta[c]pyridine-10-carboxamide]", "pIC50": "> 6.30"},
      {"smiles": "O=C(Nc1ccc(Br)c(C(F)(F)F)c1)N1[C@H]2CC[C@@H]1c1n[nH]c(=O)cc1C2", "note": "[Compound 47, (6S,9R)-N-(4-Bromo-3-(trifluoromethyl)phenyl)-3-oxo-3,5,6,7,8,9-hexahydro-2H-6,9-epiminocyclohepta[c]pyridazine-10-carboxamide]", "pIC50": "> 6.30"},
      {"smiles": "O=C(Nc1cc(Cl)c(-c2cnc(F)c(F)c2)cc1F)N1[C@H]2CC[C@@H]1c1c[nH]c(=O)cc1C2", "note": "[Compound 261, (6S,9R)-N-(5-Chloro-4-(5,6-difluoropyridin-3-yl)-2-fluorophenyl)-3-oxo-3,5,6,7,8,9-hexahydro-2H-6,9-epiminocyclohepta[c]pyridine-10-carboxamide]", "pIC50": "> 6.30"},
      {"smiles": "O=C(Nc1cc(Cl)c(-c2ccnc(OCC(F)(F)F)c2)cc1F)N1[C@H]2CC[C@@H]1c1c[nH]c(=O)cc1C2", "note": "[Compound 309, (6S,9R)-N-(5-Chloro-2-fluoro-4-(2-(2,2,2-trifluoroethoxy)pyridin-4-yl)phenyl)-3-oxo-3,5,6,7,8,9-hexahydro-2H-6,9-epiminocyclohepta[c]pyridine-10-carboxamide]", "pIC50": "> 6.30"},
      {"smiles": "O=C(Nc1cc(Cl)c(OCc2ccccc2)cc1F)N1[C@H]2CC[C@@H]1c1n[nH]c(=O)cc1C2", "note": "[Compound 237, (6S,9R)-N-(4-(Benzyloxy)-5-chloro-2-fluorophenyl)-3-oxo-3,5,6,7,8,9-hexahydro-2H-6,9-epiminocyclohepta[c]pyridazine-10-carboxamide]", "pIC50": "> 6.30"},
      {"smiles": "CO[C@H]1C[C@@H](Oc2ccc(-c3cc(F)c(NC(=O)N4[C@H]5CC[C@@H]4c4c[nH]c(=O)cc4C5)cc3Cl)cn2)C1", "note": "[Compound 321, (6S,9R)-N-(5-Chloro-2-fluoro-4-(6-((1s,3S)-3-methoxycyclobutoxy)pyridin-3-yl)phenyl)-3-oxo-3,5,6,7,8,9-hexahydro-2H-6,9-epiminocyclohepta[c]pyridine-10-carboxamide]", "pIC50": "> 6.30"},
      {"smiles": "O=C(Nc1cc(Cl)c(-c2ccc(C(F)(F)F)nc2)cc1F)N1[C@H]2CC[C@@H]1c1c[nH]c(=O)cc1C2", "note": "[Compound 312, (6S,9R)-N-(5-Chloro-2-fluoro-4-(6-(trifluoromethyl)pyridin-3-yl)phenyl)-3-oxo-3,5,6,7,8,9-hexahydro-2H-6,9-epiminocyclohepta[c]pyridine-10-carboxamide]", "pIC50": "> 6.30"},
      {"smiles": "O=C(Nc1cc(Cl)c(-c2ccc(OCCF)nc2)cc1F)N1[C@H]2CC[C@@H]1c1n[nH]c(=O)cc1C2", "note": "[Compound 291, (6S,9R)-N-(5-Chloro-2-fluoro-4-(6-(2-fluoroethoxy)pyridin-3-yl)phenyl)-3-oxo-3,5,6,7,8,9-hexahydro-2H-6,9-epiminocyclohepta[c]pyridazine-10-carboxamide]", "pIC50": "> 6.30"},
      {"smiles": "O=C(Nc1cc(Cl)c(C(F)(F)F)cc1F)N1[C@@H]2CC[C@H]1c1ccnc(F)c1C2", "note": "[Compound 194, (5S,8R)-N-(5-Chloro-2-fluoro-4-(trifluoromethyl)phenyl)-1-fluoro-6,7,8,9-tetrahydro-5H-5,8-epiminocyclohepta[c]pyridine-10-carboxamide]", "pIC50": "> 6.30"},
      {"smiles": "O=C(Nc1cc(Cl)c(Cl)cc1F)N1[C@H]2CC[C@@H]1c1c(Cl)cnc(F)c1C2", "note": "[Compound 100, (5R,8S)-4-Chloro-N-(4,5-dichloro-2-fluorophenyl)-1-fluoro-6,7,8,9-tetrahydro-5H-5,8-epiminocyclohepta[c]pyridine-10-carboxamide]", "pIC50": "> 6.30"},
      {"smiles": "Cn1ncc2ccc(-c3cc(F)c(NC(=O)N4[C@H]5CC[C@@H]4c4n[nH]c(=O)cc4C5)cc3Cl)cc21", "note": "[Compound 152, (6S,9R)-N-(5-Chloro-2-fluoro-4-(1-methyl-1H-indazol-6-yl)phenyl)-3-oxo-3,5,6,7,8,9-hexahydro-2H-6,9-epiminocyclohepta[c]pyridazine-10-carboxamide]", "pIC50": "> 6.30"},
      {"smiles": "COc1cncc(-c2cc(F)c(NC(=O)N3[C@H]4CC[C@@H]3c3c[nH]c(=O)cc3C4)cc2Cl)c1", "note": "[Compound 249, (6S,9R)-N-(5-Chloro-2-fluoro-4-(5-methoxypyridin-3-yl)phenyl)-3-oxo-3,5,6,7,8,9-hexahydro-2H-6,9-epiminocyclohepta[c]pyridine-10-carboxamide]", "pIC50": "> 6.30"},
      {"smiles": "O=C(Nc1cc(Cl)c(C(F)(F)F)cc1F)N1C2CCC1C(F)c1c2ccnc1F", "note": "(mixture of isomers) [Compound 226, (±, 9-endo)-N-(5-chloro-2-fluoro-4-(trifluoromethyl)phenyl)-1,9-difluoro-6,7,8,9-tetrahydro-5H-5,8-epiminocyclohepta[c]pyridine-10-carboxamide]", "pIC50": "> 6.30"},
      {"smiles": "O=C(Nc1cc(Cl)c(-c2ccc(OC3CC(F)(F)C3)nc2)cc1F)N1[C@H]2CC[C@@H]1c1n[nH]c(=O)cc1C2", "note": "[Compound 292, (6S,9R)-N-(5-Chloro-4-(6-(3,3-difluorocyclobutoxy)pyridin-3-yl)-2-fluorophenyl)-3-oxo-3,5,6,7,8,9-hexahydro-2H-6,9-epiminocyclohepta[c]pyridazine-10-carboxamide]", "pIC50": "> 6.30"}
    ]},
    {"biological_target": "human recombinant GPR65 (Homo sapiens, UniProt Q8IYL9)", "test": "Human GPR65 cAMP HTRF antagonist assay", "type": "cell-based", "details": "1321N1-hrGPR65 cells, cAMP HTRF, assay pH 7.2; read-out: hGPR65 IC50 (Activity of selected compounds according to the invention)", "source_text": "as §1, §2, §3, §4, §5, §6, §7", "values": [
      {"smiles": "CS(=O)(=O)NCc1cccc(-c2cc(F)c(NC(=O)N3[C@H]4CC[C@@H]3c3n[nH]c(=O)cc3C4)cc2Cl)c1", "note": "[Compound 203, (6S,9R)-N-(2-Chloro-5-fluoro-3′-(methylsulfonamidomethyl)-[1,1′-biphenyl]-4-yl)-3-oxo-3,5,6,7,8,9-hexahydro-2H-6,9-epiminocyclohepta[c]pyridazine-10-carboxamide]", "pIC50": "5.30 to 6.30"},
      {"smiles": "O=C(Nc1cc(Cl)c(Cl)cc1F)N1[C@H]2CC[C@@H]1c1ccnc(OC(F)F)c1C2", "note": "[Compound 93, (5R,8S)-N-(4,5-dichloro-2-fluorophenyl)-1-(difluoromethoxy)-6,7,8,9-tetrahydro-5H-5,8-epiminocyclohepta[c]pyridine-10-carboxamide]", "pIC50": "5.30 to 6.30"},
      {"smiles": "COc1nccc2c1C[C@@H]1CC[C@H]2N1C(=O)Nc1cc(Cl)c(Cl)cc1F", "note": "[Compound 88, (5R,8S)-N-(4,5-Dichloro-2-fluorophenyl)-1-methoxy-6,7,8,9-tetrahydro-5H-5,8-epiminocyclohepta[c]pyridine-10-carboxamide]", "pIC50": "5.30 to 6.30"}
    ]}
  ]
}
